Assay results reported in patent publication US20250109127A1, “METHODS OF USE OF PHENOXYPROPYLAMINE COMPOUNDS TO TREAT DEPRESSION” (Minerva Neurosciences, Inc., priority 2013, published 2025).
Several values for one entry are separate records, joined by “and”; a condition that tells them apart may be missing. Equal values may be shown once. Where a name gives a salt, the structure may show the parent alone.

Experiments:
[1] = tested on: HVA release in the rat prefrontal cortex; assay: Microdialysis: HVA release in prefrontal cortex after I.P. administration; format: in vivo; settings: for HVA release (% of basal levels) measured in dialysates, MEAN / HVA (% of respective basal) MEAN: n = 8; for HVA release (% of basal levels) measured in dialysates: individual animals, hydrochloride, 3 mg/kg; for HVA (% of respective basal) MEAN: SON-117 group 0.1 mg/kg I.P.
Method: The aim of the study was to evaluate, using microdialysis, the effects of an intraperitoneal (I.P.) administration in rats of three different doses of SON-117 on dopamine and its metabolites, serotonin and its metabolite (5-HIAA), and norepinephrine levels in prefrontal cortex.
Thirty-two adult male Wistar rats were used for the whole study (4 groups of eight animals planned for the study, Table 1).
Surgery was performed on rats weighing about 300 g at the beginning of the experiments. Rats were anaesthetized with Ketamine (50 mg/kg) & Xylazine (15 mg/kg) by intramuscular administration. The animals were placed in a stereotaxic apparatus in the flat-skull position at a constant setting of −3.3 mm between ear bars and the incisor bar. The animals were treated with a local anesthesic (xylocaine 1%, Astra Zeneca) and an analgesic (Temgesic, from Schering Plough, 0.05 mg/kg, s.c.). A rostrocaudal midline incision was made with a lancet to expose the dorsal skull surface. The “stereotaxic zero” was defined by the Bregma in accordance with Paxinos and Watson's atlas (1986). A hole was drilled in the skull with a drill and the meninges were pierced with a sterile needle to implant a CMA12 guide cannula which later received the dialysis probe.
Coordinates used for implanting guide cannula in prefrontal cortex from Bregma were anteroposterior 3.7 mm, mediolateral 0.8 mm, and dorsoventral −2 mm (top of the probe was at −5 mm). The guide cannula was fixed to the skull with two stainless steel screws (1.88 mm outside diameter) anchored. An application of dental cement was added. A plastic collar allowed each animal to be tethered to a Swivel assembly of the CMA 120 awake animal system. Following surgery, rats were kept in individual cages and allowed to recover for a minimum of 3-5 days before the experimentation. The rats were handled and put in plastic bowl for 10 min at least every day to habituate the animals to their new environment for the dialysis. An I.P. administration with saline was also performed every day.
Dialysis probes (CMA12/3 mm, membrane, 20 kD cut-off, Carnegie Medicine, Stockholm, Sweden), were carefully washed before inserting into the guide cannula. The wash was performed with the artificial cerebrospinal fluid (aCSF) medium (NaCl 147 mM, KCl 2.7 mM, CaCl2 1.2 mM, MgCl2 0.85 mM) at room temperature. The dialysis system was then equilibrated at 20° C. at a perfusion rate of 1 μl/min with a Carnegie pump (CMA100). All catheters (FEP tubing, internal volume of 1.2 μl/10 cm, and tubing adaptors) used for microdialysis were treated in the same conditions.
The probes duly prepared were inserted into the guide cannula and the CMA120 Swivel assembly secured to the animal using a plastic collar. Flow through the dialysis probe with aCSF was maintained at a rate of 1 μl/min during the whole experimentation. The first four fractions (corresponding to 2 hours) were discarded to avoid the effects of parenchymal disturbance and to ensure that an approximate steady-state level was reached. Fractions were then collected over a period of 8.5 h during which time the animals remained quiet. The dialysates were automatically collected with an autosampler (microfraction collector CMA 140, Carnegie Medicin) and stored at −80° C. until analysis. […] Perfusion was then maintained for 7 hours with aCSF. The dialysates (30 μl) were collected into 300 μl vials, transferred into dry ice and then kept frozen (−80° C.) until analysis. Frozen samples were shipped to a partner for analysis. At the end of the microdialysis study, a PBS with colored ink was perfused through the probe in order to visualize the dialyzed area.
Catecholamine assay: Concentrations of dopamine, DOPAC, HVA, 5-HIAA, 5-HT, and norepinephrin were determined for each sample by HPLC coupled with electrochemical detection.

subjective sleep = assay: Leeds Sleep Evaluation Questionnaire (LSEQ); format: in vivo, human; settings: SON-117 1 mg; after single administration, sustained up to day 16
[2] = SON-117 3 mg/kg IP, T1 h 30-T2 h
[3] = SON-117 3 mg/kg IP, T1 h-T1 h 30
[4] = SON-117 3 mg/kg IP, T2 h 30-T3 h
[5] = SON-117 3 mg/kg IP, T2 h-T2 h 30
[6] = SON-117 3 mg/kg IP, T3 h 30-T4 h
[7] = SON-117 3 mg/kg IP, T3 h-T3 h 30
[8] = SON-117 3 mg/kg IP, T4 h 30-T5 h
[9] = SON-117 3 mg/kg IP, T4 h-T4 h 30
[10] = SON-117 3 mg/kg IP, T5 h 30-T6 h
[11] = SON-117 3 mg/kg IP, T5 h-T5 h 30
[12] = SON-117 3 mg/kg IP, T6 h 30-T7 h
[13] = SON-117 3 mg/kg IP, T6 h-T6 h 30

Cc1nnc(-c2cc3c(OC[C@@H](O)CN4CCC(c5ccc(Cl)c(Cl)c5)CC4)cccc3o2)o1 [SON-117, (S)-1-(4-(3,4-dichlorophenyl)piperidino)-3-(2-(5-methyl-1,3,4-oxadiazol-2-yl)benzo(b)furan-4-yloxy)-2-propanol hydrochloride]
HVA release (% of basal levels) measured in dialysates, MEAN [1, 2]: 106.02 % of basal levels | HVA release (% of basal levels) measured in dialysates [1, 2]: 84.71 % of basal levels and 105.56 % of basal levels and 94.73 % of basal levels and 137.50 % of basal levels and 83.65 % of basal levels and 91.30 % of basal levels and 115.23 % of basal levels and 135.51 % of basal levels | HVA release (% of basal levels) measured in dialysates, MEAN [1, 3]: 103.62 % of basal levels | HVA release (% of basal levels) measured in dialysates [1, 3]: 91.12 % of basal levels and 84.36 % of basal levels and 104.08 % of basal levels and 126.08 % of basal levels and 106.58 % of basal levels and 89.86 % of basal levels and 137.31 % of basal levels and 89.55 % of basal levels | HVA release (% of basal levels) measured in dialysates, MEAN [1, 4]: 102.12 % of basal levels | HVA release (% of basal levels) measured in dialysates [1, 4]: 105.21 % of basal levels and 84.02 % of basal levels and 95.14 % of basal levels and 119.75 % of basal levels and 76.92 % of basal levels and 96.18 % of basal levels and 146.40 % of basal levels and 93.34 % of basal levels | HVA release (% of basal levels) measured in dialysates, MEAN [1, 5]: 98.10 % of basal levels | HVA release (% of basal levels) measured in dialysates [1, 5]: 100.40 % of basal levels and 90.71 % of basal levels and 80.00 % of basal levels and 109.73 % of basal levels and 85.44 % of basal levels and 89.46 % of basal levels and 133.10 % of basal levels and 95.93 % of basal levels | HVA release (% of basal levels) measured in dialysates, MEAN [1, 6]: 98.25 % of basal levels | HVA release (% of basal levels) measured in dialysates [1, 6]: 101.22 % of basal levels and 90.35 % of basal levels and 83.39 % of basal levels and 123.68 % of basal levels and 80.06 % of basal levels and 94.85 % of basal levels and 114.56 % of basal levels and 97.90 % of basal levels | HVA release (% of basal levels) measured in dialysates, MEAN [1, 7]: 105.01 % of basal levels | HVA release (% of basal levels) measured in dialysates [1, 7]: 99.13 % of basal levels and 88.16 % of basal levels and 98.47 % of basal levels and 148.68 % of basal levels and 75.12 % of basal levels and 89.56 % of basal levels and 118.49 % of basal levels and 122.51 % of basal levels | HVA release (% of basal levels) measured in dialysates, MEAN [1, 8]: 92.26 % of basal levels | HVA release (% of basal levels) measured in dialysates [1, 8]: 94.88 % of basal levels and 58.87 % of basal levels and 92.33 % of basal levels and 106.33 % of basal levels and 75.16 % of basal levels and 112.83 % of basal levels and 123.56 % of basal levels and 74.10 % of basal levels | HVA release (% of basal levels) measured in dialysates, MEAN [1, 9]: 99.19 % of basal levels | HVA release (% of basal levels) measured in dialysates [1, 9]: 97.33 % of basal levels and 77.20 % of basal levels and 84.63 % of basal levels and 137.16 % of basal levels and 71.70 % of basal levels and 91.93 % of basal levels and 127.61 % of basal levels and 105.99 % of basal levels | HVA release (% of basal levels) measured in dialysates, MEAN [1, 10]: 87.32 % of basal levels | HVA release (% of basal levels) measured in dialysates [1, 10]: 93.31 % of basal levels and 31.10 % of basal levels and 89.25 % of basal levels and 99.64 % of basal levels and 66.49 % of basal levels and 109.12 % of basal levels and 117.65 % of basal levels and 101.69 % of basal levels | HVA release (% of basal levels) measured in dialysates, MEAN [1, 11]: 101.76 % of basal levels | HVA release (% of basal levels) measured in dialysates [1, 11]: 93.67 % of basal levels and 56.56 % of basal levels and 102.66 % of basal levels and 106.92 % of basal levels and 69.24 % of basal levels and 112.81 % of basal levels and 133.42 % of basal levels and 138.83 % of basal levels | HVA release (% of basal levels) measured in dialysates, MEAN [1, 12]: 96.24 % of basal levels | HVA release (% of basal levels) measured in dialysates [1, 12]: 84.70 % of basal levels and 71.14 % of basal levels and 87.80 % of basal levels and 117.29 % of basal levels and 74.11 % of basal levels | HVA release (% of basal levels) measured in dialysates, MEAN [1, 13]: 88.31 % of basal levels | HVA release (% of basal levels) measured in dialysates [1, 13]: 71.80 % of basal levels and 62.19 % of basal levels and 96.42 % of basal levels and 114.78 % of basal levels and 75.15 % of basal levels and 95.54 % of basal levels and 102.27 % of basal levels | HVA release (% of basal levels) measured in dialysates, MEAN ([1]; SON-117 3 mg/kg IP, T-30 min-T0 (pre-administration)): 97.66 % of basal levels | HVA release (% of basal levels) measured in dialysates, MEAN ([1]; SON-117 3 mg/kg IP, T-1 h 30-T-1 h (pre-administration)): 99.26 % of basal levels | HVA release (% of basal levels) measured in dialysates, MEAN ([1]; SON-117 3 mg/kg IP, T-1 h-T-30 min (pre-administration)): 103.08 % of basal levels | HVA concentration in prefrontal cortex, significant slight increase ([1]; SON-117 3 mg/kg IP, at 3.5 h): 114% | HVA, difference to the citalopram group (two-way ANOVA) ([1]; SON-117 at the three doses tested, in function of time): no significant differences | HVA (% of respective basal) MEAN ([1]; T0-T30 min): 101.53 % of respective basal | HVA (% of respective basal) MEAN ([1]; T30-T1 h): 118.07 % of respective basal | HVA (% of respective basal) MEAN ([1]; T1 h 30-T2 h): 112.1 % of respective basal | HVA (% of respective basal) MEAN ([1]; T1 h-T1 h 30): 139.45 % of respective basal | HVA (% of respective basal) MEAN ([1]; T2 h 30-T3 h): 111.13 % of respective basal | HVA (% of respective basal) MEAN ([1]; T2 h-T2 h 30): 107.76 % of respective basal | HVA (% of respective basal) MEAN ([1]; T3 h 30-T4 h): 113.38 % of respective basal | HVA (% of respective basal) MEAN ([1]; T3 h-T3 h 30): 106.61 % of respective basal | HVA (% of respective basal) MEAN ([1]; T4 h 30-T5 h): 102.76 % of respective basal | HVA (% of respective basal) MEAN ([1]; T4 h-T4 h 30): 127.17 % of respective basal | HVA (% of respective basal) MEAN ([1]; T5 h 30-T6 h): 109.97 % of respective basal | HVA (% of respective basal) MEAN ([1]; T5 h-T5 h 30): 112.73 % of respective basal | HVA (% of respective basal) MEAN ([1]; T6 h 30-T7 h): 113.53 % of respective basal | HVA (% of respective basal) MEAN ([1]; T6 h-T6 h 30): 108.85 % of respective basal | HVA (% of respective basal) MEAN ([1]; T-30 min-T0 (before administration)): 101.64 % of respective basal | HVA (% of respective basal) MEAN ([1]; T-1 h 30-T-1 h (before administration)): 97.88 % of respective basal | HVA (% of respective basal) MEAN ([1]; T-1 h-T-30 min (before administration)): 100.48 % of respective basal | LSEQ getting to sleep (subjective sleep): easier | LSEQ quality of sleep (subjective sleep): improved
